Data reported in PubChem BioAssay AID2060493 (Molecular Pharmacology Branch, DTP, NCI, 2025).

Test system: 616215-338-R-J1-PDC tumor spheroids, viability
Experiment: Anticancer human tumor 616215-338-R-J1-PDC patient-derived colon adenocarcinoma cell line growth inhibition [GQUAD]
Settings: spheroids with HUVEC and MSC; for IC50: curve of first compound; for viability, T/C: stronger effect = lower value
Summary of the method: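 Viability of tumor cells grown as complex spheroids with endothelial and stromal cells, exposed to drug combinations. Top concentration at or near clinical Cmax (else 10 microM), diluted in half-log increments.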

[1] = second compound 0.0316 µM, first compound 0.0316 µM
[2] = second compound 0.0316 µM, first compound 0.316 µM
[3] = second compound 0.1 µM, first compound 0.0316 µM
[4] = second compound 0.1 µM, first compound 0.316 µM
[5] = second compound 0.316 µM, first compound 0.0316 µM
[6] = second compound 0.316 µM, first compound 0.316 µM
[7] = second compound 1 µM, first compound 0.0316 µM
[8] = second compound 1 µM, first compound 0.316 µM
[9] = second compound 3.16 µM, first compound 0.0316 µM
[10] = second compound 3.16 µM, first compound 0.316 µM
[11] = second compound 10 µM, first compound 0.0316 µM
[12] = second compound 10 µM, first compound 0.316 µM
[13] = second compound 0.0316 µM, first compound 0.1 µM
[14] = second compound 0.0316 µM, first compound 1 µM
[15] = second compound 0.0316 µM, first compound 3.16 µM
[16] = second compound 0.0316 µM, first compound 10 µM
[17] = second compound 0.1 µM, first compound 0.1 µM
[18] = second compound 0.1 µM, first compound 1 µM
[19] = second compound 0.1 µM, first compound 3.16 µM
[20] = second compound 0.1 µM, first compound 10 µM
[21] = second compound 0.316 µM, first compound 0.1 µM
[22] = second compound 0.316 µM, first compound 1 µM
[23] = second compound 0.316 µM, first compound 3.16 µM
[24] = second compound 0.316 µM, first compound 10 µM
[25] = second compound 1 µM, first compound 0.1 µM
[26] = second compound 1 µM, first compound 1 µM
[27] = second compound 1 µM, first compound 3.16 µM
[28] = second compound 1 µM, first compound 10 µM
[29] = second compound 3.16 µM, first compound 0.1 µM
[30] = second compound 3.16 µM, first compound 1 µM
[31] = second compound 3.16 µM, first compound 3.16 µM
[32] = second compound 3.16 µM, first compound 10 µM
[33] = second compound 10 µM, first compound 0.1 µM
[34] = second compound 10 µM, first compound 1 µM
[35] = second compound 10 µM, first compound 3.16 µM
[36] = second compound 10 µM, first compound 10 µM
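Also: spheroids exposed to agents for 7 days before readout.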
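For viability, T/C in this document: percent viability relative to DMSO vehicle control wells taken as 100%.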

Cc1[nH]c2ccccc2c1CCNCc1ccc(/C=C/C(=O)NO)cc1 + CN(C)c1ccc(Nc2c3ccc(NC(=O)CCN4CCCC4)cc3nc3cc(NC(=O)CCN4CCCC4)ccc23)cc1
IC50 (second compound 0.0316 µM): 174 nM
IC50 (second compound 0.1 µM): 132 nM
IC50 (second compound 0.316 µM): 134 nM
IC50 (second compound 1 µM): 118 nM
IC50 (second compound 3.16 µM): 90.8 nM
IC50 (second compound 10 µM): 66.1 nM
viability, T/C (second compound 0.0316 µM, first compound 0.000999 µM): 104%
viability, T/C (second compound 0.0316 µM, first compound 0.00316 µM): 102%
viability, T/C (second compound 0.0316 µM, first compound 0.00999 µM): 104%
viability, T/C [1]: 107%
viability, T/C (second compound 0.0316 µM, first compound 0.0999 µM): 83.1%
viability, T/C [2]: 14.2%
viability, T/C (second compound 0.1 µM, first compound 0.000999 µM): 93.1%
viability, T/C (second compound 0.1 µM, first compound 0.00316 µM): 99.5%
viability, T/C (second compound 0.1 µM, first compound 0.00999 µM): 104%
viability, T/C [3]: 88.8%
viability, T/C (second compound 0.1 µM, first compound 0.0999 µM): 61.2%
viability, T/C [4]: 15.8%
viability, T/C (second compound 0.316 µM, first compound 0.000999 µM): 101%
viability, T/C (second compound 0.316 µM, first compound 0.00316 µM): 103%
viability, T/C (second compound 0.316 µM, first compound 0.00999 µM): 113%
viability, T/C [5]: 104%
viability, T/C (second compound 0.316 µM, first compound 0.0999 µM): 62.7%
viability, T/C [6]: 12.3%
viability, T/C (second compound 1 µM, first compound 0.000999 µM): 113%
viability, T/C (second compound 1 µM, first compound 0.00316 µM): 93.8%
viability, T/C (second compound 1 µM, first compound 0.00999 µM): 105%
viability, T/C [7]: 86%
viability, T/C (second compound 1 µM, first compound 0.0999 µM): 57%
viability, T/C [8]: 7.13%
viability, T/C (second compound 3.16 µM, first compound 0.000999 µM): 102%
viability, T/C (second compound 3.16 µM, first compound 0.00316 µM): 96.8%
viability, T/C (second compound 3.16 µM, first compound 0.00999 µM): 87.8%
viability, T/C [9]: 92%
viability, T/C (second compound 3.16 µM, first compound 0.0999 µM): 46.2%
viability, T/C [10]: 12.2%
viability, T/C (second compound 10 µM, first compound 0.000999 µM): 92.9%
viability, T/C (second compound 10 µM, first compound 0.00316 µM): 93%
viability, T/C (second compound 10 µM, first compound 0.00999 µM): 77.7%
viability, T/C [11]: 70.3%
viability, T/C (second compound 10 µM, first compound 0.0999 µM): 39.3%
viability, T/C [12]: 0.37%

CC(=O)O[C@H]1C(=O)[C@@]2(C)[C@H]([C@H](OC(=O)c3ccccc3)[C@]3(O)C[C@H](OC(=O)[C@H](O)[C@@H](NC(=O)c4ccccc4)c4ccccc4)C(C)=C1C3(C)C)[C@]1(OC(C)=O)CO[C@@H]1C[C@@H]2O + Cc1[nH]c2ccc(F)cc2c1-c1nc2c3cccnc3c3ncccc3c2[nH]1
IC50 (second compound 0.0316 µM): < 31.6 nM
IC50 (second compound 0.1 µM): < 31.6 nM
IC50 (second compound 0.316 µM): < 31.6 nM
IC50 (second compound 1 µM): < 31.6 nM
IC50 (second compound 3.16 µM): < 31.6 nM
IC50 (second compound 10 µM): < 31.6 nM
viability, T/C [1]: 25.5%
viability, T/C [13]: 21.1%
viability, T/C [2]: 16.1%
viability, T/C [14]: 14.5%
viability, T/C [15]: 13.6%
viability, T/C [16]: 12.9%
viability, T/C [3]: 31.7%
viability, T/C [17]: 15.6%
viability, T/C [4]: 15.4%
viability, T/C [18]: 12.1%
viability, T/C [19]: 11.7%
viability, T/C [20]: 13.8%
viability, T/C [5]: 22.9%
viability, T/C [21]: 18.9%
viability, T/C [6]: 15.5%
viability, T/C [22]: 11.6%
viability, T/C [23]: 13.1%
viability, T/C [24]: 11.6%
viability, T/C [7]: 19.6%
viability, T/C [25]: 12.4%
viability, T/C [8]: 12.8%
viability, T/C [26]: 11.8%
viability, T/C [27]: 13.2%
viability, T/C [28]: 14.7%
viability, T/C [9]: 14.9%
viability, T/C [29]: 14.7%
viability, T/C [10]: 15.1%
viability, T/C [30]: 10.2%
viability, T/C [31]: 10.8%
viability, T/C [32]: 11.1%
viability, T/C [11]: 16%
viability, T/C [33]: 12.5%
viability, T/C [12]: 14.9%
viability, T/C [34]: 11.5%
viability, T/C [35]: 10.1%
viability, T/C [36]: 10.8%

COc1ncnc(C2CC2)c1-c1ncc2cnn(Cc3ccc(-c4nc(C(F)(F)F)cn4C(C)C)cc3)c2n1 + Cc1cnc(CNC(=O)c2c(=O)c3ccc(N4CCCN(C)CC4)nc3n3c2sc2ccccc23)cn1
IC50 (second compound 0.0316 µM): > 10000 nM
IC50 (second compound 0.1 µM): > 10000 nM
IC50 (second compound 0.316 µM): < 31.6 nM
IC50 (second compound 1 µM): < 31.6 nM
IC50 (second compound 3.16 µM): < 31.6 nM
IC50 (second compound 10 µM): < 31.6 nM
viability, T/C [1]: 108%
viability, T/C [13]: 98.7%
viability, T/C [2]: 113%
viability, T/C [14]: 97.2%
viability, T/C [15]: 108%
viability, T/C [16]: 100%
viability, T/C [3]: 70.8%
viability, T/C [17]: 72.2%
viability, T/C [4]: 62.1%
viability, T/C [18]: 57.5%
viability, T/C [19]: 64.2%
viability, T/C [20]: 58.3%
viability, T/C [5]: 48.9%
viability, T/C [21]: 46%
viability, T/C [6]: 34.3%
viability, T/C [22]: 34.8%
viability, T/C [23]: 41.4%
viability, T/C [24]: 66.7%
viability, T/C [7]: 22.7%
viability, T/C [25]: 35.4%
viability, T/C [8]: 36.1%
viability, T/C [26]: 32.6%
viability, T/C [27]: 34.3%
viability, T/C [28]: 31.3%
viability, T/C [9]: 23%
viability, T/C [29]: 28.7%
viability, T/C [10]: 22.4%
viability, T/C [30]: 26.7%
viability, T/C [31]: 40.3%
viability, T/C [32]: 27.1%
viability, T/C [11]: 13.8%
viability, T/C [33]: 28.4%
viability, T/C [12]: 21.3%
viability, T/C [34]: 25.5%
viability, T/C [35]: 35.1%
viability, T/C [36]: 22.1%

CC(C)(O)C1CCC(Nc2ccc3ncc(-c4cccc(C(F)(F)F)c4)n3n2)CC1 (stereo not given) + Cc1cnc(CNC(=O)c2c(=O)c3ccc(N4CCCN(C)CC4)nc3n3c2sc2ccccc23)cn1
IC50 (second compound 0.0316 µM): 571 nM
IC50 (second compound 0.1 µM): 352 nM
IC50 (second compound 0.316 µM): < 31.6 nM
IC50 (second compound 1 µM): < 31.6 nM
IC50 (second compound 3.16 µM): < 31.6 nM
IC50 (second compound 10 µM): < 31.6 nM
viability, T/C [1]: 96.8%
viability, T/C [13]: 86.9%
viability, T/C [2]: 82.1%
viability, T/C [14]: 19.8%
viability, T/C [15]: 1.65%
viability, T/C [16]: 2.16%
viability, T/C [3]: 67.2%
viability, T/C [17]: 73.2%
viability, T/C [4]: 53.1%
viability, T/C [18]: 13.9%
viability, T/C [19]: 4.15%
viability, T/C [20]: 1.36%
viability, T/C [5]: 36.8%
viability, T/C [21]: 50.2%
viability, T/C [6]: 37.3%
viability, T/C [22]: 14.8%
viability, T/C [23]: 0.03%
viability, T/C [24]: 2.26%
viability, T/C [7]: 32.5%
viability, T/C [25]: 32.1%
viability, T/C [8]: 28.7%
viability, T/C [26]: 13.3%
viability, T/C [27]: 0.05%
viability, T/C [28]: 0.06%
viability, T/C [9]: 20.9%
viability, T/C [29]: 24.2%
viability, T/C [10]: 29.9%
viability, T/C [30]: 3.87%
viability, T/C [31]: 0.1%
viability, T/C [32]: 0.12%
viability, T/C [11]: 19.6%
viability, T/C [33]: 24.7%
viability, T/C [12]: 27.8%
viability, T/C [34]: 0.18%
viability, T/C [35]: 0.22%
viability, T/C [36]: 0.2%

CC1COCCN1c1cc(-c2ccnn2C)c2ccnc(-c3ccn[nH]3)c2n1 (stereo not given) + Cc1cnc(CNC(=O)c2c(=O)c3ccc(N4CCCN(C)CC4)nc3n3c2sc2ccccc23)cn1
IC50 (second compound 0.0316 µM): < 31.6 nM
IC50 (second compound 0.1 µM): < 31.6 nM
IC50 (second compound 0.316 µM): < 31.6 nM
IC50 (second compound 1 µM): < 31.6 nM
IC50 (second compound 3.16 µM): < 31.6 nM
IC50 (second compound 10 µM): < 31.6 nM
viability, T/C [1]: 49.5%
viability, T/C [13]: 29.5%
viability, T/C [2]: 31.4%
viability, T/C [14]: 24.8%
viability, T/C [15]: 25.9%
viability, T/C [16]: 21.4%
viability, T/C [3]: 42.5%
viability, T/C [17]: 35.8%
viability, T/C [4]: 29.2%
viability, T/C [18]: 25.7%
viability, T/C [19]: 23.7%
viability, T/C [20]: 20.7%
viability, T/C [5]: 28.4%
viability, T/C [21]: 32.1%
viability, T/C [6]: 26%
viability, T/C [22]: 28.5%
viability, T/C [23]: 37.4%
viability, T/C [24]: 24.8%
viability, T/C [7]: 30.6%
viability, T/C [25]: 29.8%
viability, T/C [8]: 31.9%
viability, T/C [26]: 24%
viability, T/C [27]: 19.6%
viability, T/C [28]: 17.9%
viability, T/C [9]: 28.8%
viability, T/C [29]: 22.4%
viability, T/C [10]: 25.8%
viability, T/C [30]: 24.4%
viability, T/C [31]: 22.5%
viability, T/C [32]: 17%
viability, T/C [11]: 30.2%
viability, T/C [33]: 22.7%
viability, T/C [12]: 23%
viability, T/C [34]: 19.7%
viability, T/C [35]: 24.2%
viability, T/C [36]: 19.3%
